This note sets out measurements from US20130253037A1, “AURORA A KINASE EFFECTORS” (PURDUE RESEARCH FOUNDATION, priority 2010, published 2013).

One assay relates to AA-as7-MDA cells. The experiment in a line: Western blot of protein levels after 1-NM-PP1, AA-as7-MDA cells. The class given is cell-based. The following applies: for Aurora A levels: AA-as7-MDA cells treated with inhibitor. The protocol:
Aurora A can regulate its substrates using either its kinase activity or scaffolding function. Therefore, to dissect the mechanism further, AA-MDA and AA-as7-MDA were treated with 1-NM-PP1 for 12 h and PHLDA1 expression analyzed.
AA-MDA and AA-as7 MDA cells were treated with either DMSO or 1-NM-PP1 (250 nM) for 12 h, followed by cell lysis. For MLN8237 experiment, MDA cells were treated with 1 μM MLN8237 for 12 h.
Cells were harvested and lysed in modified RIPA buffer, supplemented with protease inhibitors. Equal amounts of cell extracts were then used to conduct western blot.
Aurora A-mediated phosphorylation of its substrates often promotes their degradation (e.g. p53, PHLDA1) or stabilization (ASAP1). Therefore, we investigated whether Aurora A exerts control over LIMK2 level. Aurora A was transiently depleted in MDA cells using two different shRNAs, causing concomitant decrease in LIMK2 level (FIG. 6A). Wild-type and mutant AA (AA-as7) were stably overexpressed in MDA cells (AA-MDA and AA-as7-MDA cells respectively), leading to considerable increase in LIMK2 levels (FIG. 6B), thereby confirming that Aurora A positively regulates LIMK2 levels. Aurora A can regulate its substrates using either its kinase activity or scaffolding function. Aurora A regulates p53 levels by phosphorylation, but regulates ASAP levels through the scaffolding function. Therefore, to dissect the mechanism by which Aurora A regulates LIMK2, AA-MDA and AA-as7-MDA cells were treated with 1-NM-PP 1 for 12 h and LIMK2 expression analyzed.

Assay [1] has as its system wild-type Aurora A-expressing NIH3T3 cells. Put plainly: Soft agar colony formation, wild-type Aurora A-NIH3T3 cells. The format is cell-based. The following applies: 0.5 μM (identical conditions). Here is the method:
(§1) Briefly equal volumes of nobel agar (1%, DNA grade) and 2×RPMI 1640 (with 20% FBS) were mixed at 40° C. to make 0.5% agar in six-well tissue culture plates (Corning) as a base agar. Cells (0.1 ml of 2.0×10^5/ml) were suspended in 3 mL of 2×RPMI 1640 (with 20% FBS) and 3 ml of 0.7% agar. 1.5 ml of this suspension was added to each well (as 0.35% top agar) with final concentration of 5,000 cells per well. Top agar was covered with 500 μl of culture media. Plates were incubated at 37° C. for 3 to 4 weeks. Fresh media was added every three days.
(§2) For 1-NM-PPI experiments, fresh media containing 1-NM-PP1 (100 nM) or DMSO were added to the cells every 3 days. Colony formation was observed by light phase-contrast microscope and visually after staining with 0.5 ml of 0.01% crystal violet in PBS for 45 min at room temperature. Experiments were repeated in quadruplicate, two independent times to ensure the reproducibility of the results.

Another assay deals with T1, wild-type Aurora A (Mus musculus, UniProt P97477).
T1 construct: 6-His; made in house; host or cells: Sf9 insect cells (baculovirus, Bac-to-Bac)
T1 sequence (P97477 1-395): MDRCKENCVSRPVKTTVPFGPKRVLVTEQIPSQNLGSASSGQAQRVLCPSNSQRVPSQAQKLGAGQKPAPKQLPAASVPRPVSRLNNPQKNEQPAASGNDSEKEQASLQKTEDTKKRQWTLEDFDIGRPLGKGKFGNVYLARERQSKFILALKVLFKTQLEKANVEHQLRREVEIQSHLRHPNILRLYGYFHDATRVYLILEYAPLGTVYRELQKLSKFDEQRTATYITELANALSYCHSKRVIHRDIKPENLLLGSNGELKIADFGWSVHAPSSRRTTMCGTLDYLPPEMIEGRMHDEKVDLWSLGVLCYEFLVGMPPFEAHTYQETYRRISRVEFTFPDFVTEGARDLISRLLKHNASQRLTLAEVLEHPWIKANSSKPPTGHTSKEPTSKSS
T1 sequence (Q9ULW0 1-747 partner): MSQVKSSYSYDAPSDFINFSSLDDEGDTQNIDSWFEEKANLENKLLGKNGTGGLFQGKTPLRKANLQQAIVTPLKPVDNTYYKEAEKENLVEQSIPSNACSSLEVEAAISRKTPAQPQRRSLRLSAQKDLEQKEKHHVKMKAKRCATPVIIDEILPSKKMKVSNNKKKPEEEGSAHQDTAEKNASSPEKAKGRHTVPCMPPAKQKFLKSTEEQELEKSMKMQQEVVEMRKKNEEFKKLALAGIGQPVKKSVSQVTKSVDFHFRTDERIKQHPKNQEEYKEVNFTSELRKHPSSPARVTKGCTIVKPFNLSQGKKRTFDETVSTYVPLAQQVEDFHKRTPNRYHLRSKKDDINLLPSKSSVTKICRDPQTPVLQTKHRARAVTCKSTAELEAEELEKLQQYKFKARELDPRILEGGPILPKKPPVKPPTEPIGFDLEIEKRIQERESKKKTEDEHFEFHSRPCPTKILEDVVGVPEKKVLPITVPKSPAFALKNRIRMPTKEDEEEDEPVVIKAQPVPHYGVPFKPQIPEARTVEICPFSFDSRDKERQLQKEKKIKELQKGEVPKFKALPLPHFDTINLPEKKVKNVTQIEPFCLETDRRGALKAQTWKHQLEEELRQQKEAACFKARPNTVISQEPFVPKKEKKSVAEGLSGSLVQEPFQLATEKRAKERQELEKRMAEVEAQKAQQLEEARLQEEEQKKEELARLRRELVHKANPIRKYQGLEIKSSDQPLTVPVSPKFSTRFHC
The experiment in a line: In vitro kinase assay with wild-type Aurora A and TPX2. The format is biochemical, murine. Particulars: even at higher concentrations. The protocol: (§3) For in vitro labeling, Aurora A/TPX2 complex (on beads) was pre-incubated with 10 μM cold ATP for 10 min to activate the kinase. The beads were washed twice with kinase buffer, and then subjected to kinase assay with 2-5 μg of recombinant protein (such as PHLDA) and 1 μCi of [γ-^32P] ATP. Reactions were terminated by adding SDS sample buffer, separated by SDS-PAGE gel, transferred to PVDF membrane and exposed to Biomax MS film. Aurora A kinase assays were conducted using 1 μCi of [γ-^32P] ATP and 3 μg of Aurora A substrate peptide in a final volume of 30 μl at 30° C. as reported before (Sun, et al, (2008a) Mol. Biol. Cell 19, 3052-3069).
(§4) IC50 values were determined by fitting the data to a sigmoidal dose response curve using GraphPad Prism 4.0 software. Km and Vmax values were derived from the assay described above using various concentrations of AA peptide substrate and ATP. Km and Vmax values were determined using GraphPad Prism 4.0 software.

The target of assay [2] is T2, AA-as7 kinase (Aurora A LI85V, L201G) (Mus musculus, UniProt P97477, L185V/L201G).
T2 construct: the Aurora A mutant is the double mutant Aurora A (AA-as7); 6-His; made in house; host or cells: Sf9 insect cells (baculovirus, Bac-to-Bac)
T2 sequence (P97477 1-395 L185V/L201G): T1 sequence (P97477 1-395) with L185V, L201G
The experiment in a line: In vitro kinase assay with AA-as7 and TPX2. The class given is biochemical, murine. The protocol: as §3, §4

The test system of a further assay is AA-as7-NIH3T3 cells. Put plainly: Soft agar colony formation, AA-as7-NIH3T3 cells. The format is cell-based. The following applies: 0.5 μM. The protocol: as §1, §2
In assay [3] the target is Aurora B-as7 (L138V, L154G-AB) kinase (Homo sapiens, UniProt Q96GD4, L138V/L154G). Put plainly: In vitro kinase assay with AB-as7. The class given is biochemical. The following applies: phosphodonor as labelled.
Assay [4] relates to wt kinases present in the MDA cell lysate. Put plainly: In vitro kinase reaction with MDA cell lysate and [γ-32P] Phenethyl-ATP. The format is biochemical. Particulars: cell lysate alone, without AA-as7/TPX2. Here is the method:
To prepare a labeled sample for 2D gel electrophoresis, kinase reactions with whole cell lysate or fractionated lysate were carried out as published before (Sun, et al, (2008a) Mol. Biol. Cell 19, 3052-3069). Gel spots were manually excised and automatically processed for peptide mapping experiments using a Micromass MassPREP Station in conjunction with manufacturer specified protocols.
An in vitro kinase reaction was performed using unsynchronized MDA cell lysate, [[γ-^32P] Phenethyl-ATP and Aurora A-as7/TPX2 to identify novel Aurora A substrates. […] Phenethyl ATP is specific for the engineered kinase and is not accepted by wt kinases present in the cell lysate. In contrast, when AA-as7 and TPX2 were added to the cell lysate along with Phenethyl ATP, it phosphorylated several proteins. These proteins are the direct targets of Aurora A. To isolate these targets, proteins were separated using 2D gel electrophoresis, isolated and visualized by autoradiography. Radiolabeled proteins were excised from gel and subsequent to trypsin digestion the peptide cleavage products were identified by tandem mass spectrometry. Several Aurora A substrates were identified including PHLDA1, p53 and vimentin.

[5] abbreviates: AA-as7, phosphodonor as labelled.

Molecules are shown by their SMILES. Substitutions are numbered along the chain they refer to. Entries after “also recorded” stand apart in the source; their conditions may differ.

Sequence of Aurora B-as7 (L138V, L154G-AB) kinase (Q96GD4 whole entry L138V/L154G): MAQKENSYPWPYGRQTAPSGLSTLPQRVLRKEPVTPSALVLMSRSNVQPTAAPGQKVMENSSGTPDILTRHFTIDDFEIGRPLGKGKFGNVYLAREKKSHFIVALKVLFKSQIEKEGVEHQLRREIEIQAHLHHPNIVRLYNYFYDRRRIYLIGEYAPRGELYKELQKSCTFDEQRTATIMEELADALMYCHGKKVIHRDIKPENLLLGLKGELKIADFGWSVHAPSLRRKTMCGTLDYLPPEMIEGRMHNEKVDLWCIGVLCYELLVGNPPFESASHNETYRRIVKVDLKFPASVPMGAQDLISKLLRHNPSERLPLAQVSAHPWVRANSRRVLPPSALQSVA

Consider `CC(C)(C)n1nc(Cc2cccc3ccccc23)c2c(N)ncnc21` [1-NM-PP1], for which the LIMK2 level entry with AA-as7-MDA cells (250 nM, 12 h, AA-as7-MDA cells) was “significant decrease; also recorded: reduces LIMK2 levels”. The PHLDA1 level entry in the assay with AA-as7-MDA cells (12 h, AA-as7-MDA cells) is “increased”. The “Aurora A levels” value is on record as “reduces Aurora A levels significantly” in the assay with AA-as7-MDA cells and “decreased Aurora A levels; also recorded: lower Aurora A levels” with AA-as7-MDA cells (listed as 1-NM-PP 1). Besides, the “colony formation in soft agar” value in assay [1] is listed as “robust colony formation”; with AA-as7-NIH3T3 cells it was “completely inhibited colony formation”. Also, the “inhibition of wild-type Aurora A” value against wild-type Aurora A is “does not inhibit”. Also, the IC50 (commonly the concentration that gives 50% inhibition) in assay [2] (AA-as7 kinase) came out at 1.7 nM.

With `O=P(O)(O)OP(=O)(O)OP(=O)(O)OC[C@H]1O[C@@H](n2cnc3c(NCCc4ccccc4)ncnc32)[C@H](O)[C@@H]1O` [N^6-phenethyl ATP, N^6-(phenethyl) ATP], in assay [3], the Kcat worked out at 6.2 s⁻¹; the Km (as a rule, the substrate concentration at which the rate is half of its maximum) is 11.4 µM; the Vmax is listed as 7.44 × 10^4. Further, in assay [4], the “labelling signal in cell lysate” value is on record as “no signal”. In assay [2] (setting [5]), the Kcat amounted to 223 s⁻¹, the Km came to 11.6 µM and the Vmax is on record as 3.02 × 10^6.
